Assay results taken from patent US7022712B2, “Solubilization of weak bases” (Arizona Board of Regents on Behalf of the University of …, priority 2002, dated 2006).
Values after ≈ are worked out from the molar mass of the structure shown. Read-outs that look alike come from different tables or passages of the source.

Assays:
[1] = listed for preferred weak bases, no method given; cited from earlier work
physchem [2] = format: physicochemical; settings: for solubility at 10 days: thermodynamic from solid
Text: The buffer systems used for the pH-solubilization profile were 0.01 M sodium citrate/HCl with pH range 1.2–4.0, 0.01 M citrate-phosphate-borate/HCl with pH range 4.0–8.0, and 0.01M glycine/NaOH with pH range 8.0–12.0. In all the above mentioned buffers the ionic strength was maintained at 0.1M using sodium chloride. The effect of buffer species on the solubility of carbendazim at very low and high pH was not observed because the Ksp of each salt was not reached. Solubility at different pH was determined in the same manner as described below.
(§1) An excess amount of carbendazim was added to vials containing 2 ml of an aqueous solution of pH 2.00±0.15 and 7.00±0.15 at different concentrations (0, 1, 2.5, 5, and 10%) of cosolvents (EtOH, PG, PEG 400, and Glycerol), surfactants (Tween 20, Tween 80, sodium lauryl sulfate (SLS), and myristoyl camitine (MC)) and cyclodextrins (HPβCD and SBEβCD). In addition the cosolvents and cyclodextrins were studied at 20%. The sample vials were rotated at 20 rpm using an end-over-end mechanical rotator (Glas-Col Laboratory rotator, Terre Haute, Ind.) at ambient temperature for 10 days. Ten days was selected to ensure equilibrium because the strong crystal structure and high melting point (305° C.) (Budavari, S., 1996. The Merck Index, Twelfth ed. Merck & Co, New Jersey) of carbendazim contributes to a very slow dissolution rate. For solutions having pH greater than 9, the solubility was measured after 3 days rotation instead of 10 days because of the unstable nature of carbendazim in alkaline condition. The samples were filtered through a 0.45-μm filter and the pH at equilibrium was measured before performing HPLC analysis.
(§2) The HPLC assay used an Econosphere C8 column (150*4.6 mm, Alltech, Los Altos, Calif.) with a mobile phase composed of pure methanol. The flow rate was controlled at 1.0 ml/min (125 solvent Module, Beckman, Fullerton, Calif.) and the effluent was detected at 280 nm (168 detector, Beckman, Fullerton, Calif.). All experimental data are the average of duplicate values with an average error less than 3%.
The formation of a resonance-stabilized cation and anion is believed responsible for the high solubilities at low and high pH that are shown in FIG. 2. […] FIGS. 7–9 show the pH profile of three other drugs, obtained using analogous methods.

physchem [3] = format: physicochemical; settings: thermodynamic from solid, Solubility of carbendazim
Procedure: as §1, with “Ten days was selected to ensure equilibrium because the strong crystal structure and high melting point (305° C.) (Budavari, S., 1996. The Merck Index, Twelfth ed. Merck & Co, New Jersey) of carbendazim contributes to a very slow dissolution rate.” left out
as §2, with “All experimental data are the average of duplicate values with an average error less than 3%.” left out

in vivo = settings: mouse
Text: The bioavailability of carbendazim was studied in the mouse. An intravenous dose, a formulation of carbendazim in corn oil, and a formulation of carbendazim in phosphoric acid corresponding to the phosphoric acid concentration in Emetrol were each given to a mouse. The blood level on the graph is indicative of the amount of drug absorbed divided by the blood volume of the mouse.

Cc1cc(NC(=O)NC(=O)c2ccccc2N(C)C)ccc1Oc1ncc(N)cn1
pKa [1]: ~5

COC(=O)Nc1nc2ccccc2[nH]1 [carbendazim, methyl 2-benzimidazolecarbamate]
intrinsic solubility (physchem [2]; 10 days): 6.11 µg/mL | pKa (physchem [2]; acidic pKa): 10.6 | pKa (physchem [2]; basic pKa): 4.5 | solubility at 10 days (physchem [2]; pH 1, aqueous buffer): 16000 µg/mL (≈ 83.7 mM) | solubility at 10 days (physchem [2]; pH 2, aqueous buffer): 1600 µg/mL (≈ 8.37 mM) | solubility at 10 days (physchem [3]; pH 2, aqueous buffer): 1640 µg/mL (≈ 8.58 mM) | solubility at 10 days (physchem [3]; pH 7, aqueous buffer): 6 µg/mL (≈ 0.0314 mM) | Cmax (in vivo; iv, 6.4 ug): 15000 ng/mL | bioavailability (in vivo; iv, 6.4 ug): 100%

Corn oil
% Bioavailability (in vivo; po, 132 mg): 4.8–6.4% | Cmax (in vivo; po, 132 mg): 15000 to 20000 ng/mL
